Results on 1 compound are retold here after patent US20030165475A1, “Non-lethal methods for conditioning a recipient for bone marrow transplantation” (priority 1993, published 2003).

“And” between values parts separate entries of the source, which are not always exact repeats. Equal values may be shown once. Read-outs that look alike come from different tables or passages of the source.

The subject of one assay is CD8-KO mice. From the text: Three to five week old C57BL/10-Cd4^tml(CD4-KO;H2^b, n=5), C57BL/6J-CD4^tm/mak (CD4-KO; H2^b, n=15) CD57BL/6JCD8α^tm/mak (CD8-KO; H2^b, n=16), C57BL/6J (B6; H2^b, n=6), C57BL/6-6d4^tm/mak (CD4-KO) and C57BL/6-Cd8^tm/mak (CD8-KO)recipient mice, as well as three to five week old B10.BR/SgSnJ (B10.BR, H2^k) donor mice were purchased from the Jackson Laboratory (Bar Harbor, Me.). Knock-out mice were housed in a special pathogen-free barrier facility, while donor mice were housed in a conventional barrier animal facility. Mice were cared for according to National Institute of Health animal care guidelines.
Bone marrow was prepared as previously described (Ildstad and Sachs, Nature, 307:168 (1984)). Briefly, B10.BR donor mice were euthanized and tibias and femurs harvested. Bone marrow was expelled from the bones with Media 199 (Gibco, Grand Island, N.Y.) containing 10 μg/ml Gentamicin (Gibco) (MEM). The cells were filtered through sterile nylon mesh with 100 μm pores, spun for minutes at 200×g and 4° C., and resuspended in MEM. A cell count was performed and the cells were diluted to a final concentration of 15×10^6 bone marrow cells per 1 ml of MEM.
CD4-KO and CD8-KO mice were treated with TBI from a cesium source (Gamma-cell 40, Nordion, Ontario, Canada). Doses from 0 to 300 cGy were administered according to the experimental groups. Animals were transplanted with 1 ml MEM containing 15×10^6 B10.BR bone marrow cells via lateral tail vein injection within 4 hours after irradiation.
Peripheral blood was obtained from the mice by tail-vein bleeding. The blood was collected in heparinized Eppendorf tubes 28 days, 3 months and 6 months after BMT. Fifty μl of whole blood were incubated for 7 minutes with 2 ml of lysing buffer (8.29 g of NH4Cl, 1.0 g of KHCO3 and 0.0372 g Na2EDTA in 1 liter H2O to lyse red blood cells. The cells were washed with 2 ml FACS medium (0.36 g NaHCO3, 1.0 g NaN3 and 1.0 g bovine serum albumin in 1 liter Hanks Balanced Salt Solution and spun at 200×g for 10 minutes at 4° C. After the supernatant was carefully decanted, cells were mixed with 10 μl diluted monoclonal antibodies (mAb; details discussed infra) and incubated for 30 minutes at 4° C. in the dark. The appropriate dilution for the use of the mAb was determined in titration experiments prior to use. After the incubation, the cells were washed twice with 2 ml of FACS medium and spun at 200×g for minutes at 4° C. Finally, the cells were fixed with 1% paraformaldehyde in PBS. The analyses were carried out on a FACS-Calibur (Becton Dickinson, Mountain View, Calif.) with CellQuest software (Becton Dickinson).
PBL were stained with mAb specific for MHC Class I antigens of donor (FITC conjugated anti-H2K^k, 36-7-5, mouse IgG1) and recipient (PE-conjugated anti-H2K^b, AF6-88.5, mouse IgG2a) origin to determine the percentage of donor chimerism. Multi-lineage engraftment was assessed by staining with biotinylated anti-H2K^k (36-7-5, mouse IgG1), FITC-conjugated anti-H2K^b (AF6-88.5, mouse IgG2a) and PE-conjugated lineage markers 3 months after BMT. The biotinylated antibody was recovered with Streptavidin-Allophycocyanin (SA-APC). The following antibodies were used as lineage markers: anti-GR-1 (RB6-8C5, rat IgG2^b); anti-MAC-1 (M1/70, rat IgG2^b); anti-CD4 (RM4-5, rat IgG2a); anti-CD8α (53-6.7, rat IgG2a); anti-B220 (RA3-6B2, rat IgG2a); anti-NK1.1 (PK136, mouse IgG2a); anti-TCR-β chain (H57-597, hamster IgG); and anti-γδ-TCR (GL3, hamster IgG). Non-specific background staining was controlled for by using isotype control antibodies directed against irrelevant antigens and conjugated with the same color as the experimental antibody (i.e., anti-TNP mouse IgG2a conjugated with PE served as isotype control for PE-conjugated anti-H2K^b mouse IgG2a). All mAb were obtained from PharMingen (San Diego, Calif.). SA-APC was purchased from Becton Dickinson (Mountain View, Calif.).

In the next assay the test system is B10 mice. Format: in vivo, mouse. As to the method: Briefly, peripheral blood was collected into heparinized plastic serum vials. […] (400g×20 minutes). […] Lymphocytes were stained for class I antigens with anti-H-2^b-FITC (Pharmingen; San Diego, Calif.), anti-H-2^k-FITC (Pharmingen), and anti-H-2^d-FITC (Pharmingen) monoclonal antibodies (Mab) for 45 minutes at 4° C. Lineage typing was performed by two color flow cytometry using anti-B-cell (B220-FITC, Pharmingen), anti-T cell (αβ-TCR-PE, CD4-FITC, CD8-PE, Pharmingen), anti-natural killer cell (NK1.1-PE, Pharmingen), anti-granulocyte (GR-1-FITC, Pharmingen), and anti-monocyte/macrophage (MAC-1-FITC, Boehringer Mannheim; Indianapolis, Id.) Mab. […] Analyses were performed using forward and side scatter characteristics for the lymphoid and myeloid gates.
To examine whether ALG would enhance the engraftment of allogeneic bone marrow in the established radiation-based model, recipient B10 mice received one of three conditioning approaches prior to transplantation with 40×10^6 or 15×10^6 BALB/c bone marrow cells: 70 mg/kg i.v. ALG given three,days prior to bone marrow transplantation (Group 1); 5Gy of TBI on the day of transplantation (Group 2); or both ALG and TBI as administered in groups 1 and 2 (Group 3). The timing of ALG was chosen to assure maximum immunosuppression at the time of allogeneic bone marrow infusion (Wood et al., 1971, Trans Proc 3(l):676). As in previous analysis, recipients were peripheral blood leukocyte (PBL)-typed for evidence of allogeneic engraftment 2 months following bone marrow transplantation.
To examine the influence of donor cell number on the ability of ALG and TBI to enhance alloengraftment, dose-titration studies were performed in which the above established radiation plus ALG conditioning were utilized. Recipients were conditioned as above prior to receiving 40×10^6, 15×10^6, or 5×10^6 BALB/c bone marrow cells.
Animals were PBL typed 2 months following reconstitution.
To examine the influence of timing of radiation on the engraftment of allogeneic bone marrow, recipient B10 mice were irradiated with 5Gy TBI one week prior to transplantation with 40×10^6 BALB/c allogeneic bone marrow cells.
B10 mice were treated with ALG at 2 mg/mouse i.v. at day −3 before bone marrow transplantation.

For `O=P1(N(CCCl)CCCl)NCCCO1` (centres unmarked) [CyP, cyclophosphamide], the “animals with donor chimerism” value in the assay on CD8-KO mice (200 mg/kg CyP alone without irradiation, 28 days after BMT) was 6 of 6 and Six of 6 and 6 out of 6. The “% animals that engrafted” value with CD8-KO mice (C57BL/6-Cd8a tm/mak, 300 cGy TBI + 200 mg/kg CyP day 2) is 100%. Moreover, the “level of donor chimerism” value in the assay on CD8-KO mice (CyP and 100 cGy TBI (n=6)) was 11±0.4%; in the assay on CD8-KO mice (CyP and 200 cGy TBI (n=6)), 32.7±1.5%. In addition, in the assay on CD8-KO mice (CyP and 300 cGy TBI (n=16)), the “average level of donor chimerism” value was 45.7%±2.5. The “engraftment of allogeneic bone marrow” value in the assay with B10 mice (5Gy TBI + CyP 200 mg/kg i.p. 2 days later, 40 × 10^6 B10.BR or BALB/c → B10, 2 months) is recorded as “nearly all recipients”. In addition, in the assay on B10 mice (5Gy TBI + CyP 200 mg/kg i.p. 2 days later, all chimeras), the “degree of donor chimerism” value was over 90%. For the same compound, the recipient mice engrafted with B10 mice (5Gy TBI and CyP, regardless of donor strain or CyP before or shortly after TBI (n=15)) is reported as about 75%. For the same compound, the “% BALB/c lymphoid cells” value in the assay on B10 mice (5 Gy TBI-based regimen, BALB/c → B10, individual animals, flow cytometry, 2 months) is 99% and 98% and 91% and 92%. Also, in the assay with B10 mice (CyP 200 mg/kg i.p. alone, no TBI), the engraftment result is recorded as “failed to engraft”. In the assay on B10 mice (chimeras after 5Gy TBI and CyP), this compound registered an allogeneic donor chimerism of at least 90%.
